Values quoted from earlier work, collected in patent US20140234375A1, “Compositions and Methods for Eliciting an Immune Response to Escape Mutants of Targeted Therapies” (priority 2005, published 2014).

What was measured:
[1] = molecular target: HCV NS3 serine protease (Hepatitis C virus genotype 1b, UniProt Q9WMX2); conditions: in vitro, major resistance mutation
[2] = system: HIV-1 variants; conditions: by 8 weeks of therapy
[3] = system: HIV gp41; conditions: valine to alanine at amino acid 38 (V38A)

COc1ccc2c(O[C@@H]3C[C@H]4C(=O)N[C@]5(C(=O)O)C[C@H]5/C=C\CCCCC[C@H](NC(=O)OC5CCCC5)C(=O)N4C3)cc(-c3csc(NC(C)C)n3)nc2c1 [BILN 2061]
frequency of Ala substitution (D168A) at amino acid 168 [1]: 24% | frequency of Val substitution (D168V) at amino acid 168 [1]: 64%

Cc1ccnc2c1NC(=O)c1cccnc1N2C1CC1 [Nevirapine, nevirapine]
decrease in susceptibility of patient isolates [2]: greater than 100 fold

CCC[C@H](NC(=O)[C@@H]1[C@H]2CCC[C@H]2CN1C(=O)[C@@H](NC(=O)[C@@H](NC(=O)c1cnccn1)C1CCCCC1)C(C)(C)C)C(=O)C(=O)NC1CC1 [VX-950]
frequency of Ser substitution (A156S) at amino acid 156 ([1]; share of samples): 79%

enfuvirtide
resistance to enfuvirtide [3]: 45 fold
